Experimental data published in US20220339291A1, “ANTIBODY-DRUG CONJUGATES THAT TARGET DLK1 AND USES THEREOF” (LegoChem Biosciences, Inc., priority 2019, published 2022).
Numbering of substitutions follows the chain as printed. Where two headings read alike, the source gives them in different places. Non-standard residues stand in square brackets, D forms with d. Residues, ends and D or L forms follow the SMILES beside them. Dolaproine = CO[C@@H]([C@@H]1CCCN1)[C@@H](C)C(=O)O; Dil = CC[C@H](C)[C@H](NC)[C@@H](CC(=O)O)OC; NMeV = CN[C@H](C(=O)O)C(C)C

Columns and labels:
[1] = tested on: MIA-PaCa2 (DLK1 negative or normal); assay: In vitro cytotoxicity (cell proliferation inhibition, SRB dye), DLK1-negative cells; type: cell-based, human
Procedure: (§1) The cancer cell line cell proliferation inhibition activity of the drugs stated in Table 3 below and the ADCs prepared in <Embodiment 3> above was measured. For this purpose, commercially available human pancreatic cancer cell line MIA-PaCa2 (DLK1 negative or normal) and MIA-PaCa-2-DLK1 over-expressing cell line were used. As the drug, MMAF-OMe was used as the ADC, and the ADCs of Table 2 were used. In a 96-well plate, each well was seeded with 4,000 to 5,000 of the respective cancer cell lines for the 72-hour treatment group, 2,000 to 3,000 cells for the 96-hour treatment group, and 800 to 1,000 cells for the 168-hour treatment group. After culturing for 24 hours, they were treated with the drug and ADC at a concentration of 0.0015 to 10.0 nM (serially diluted threefold). 72, 96 and 168 hours later, respectively, the number of live cells was measured using SRB (Sulforhodamine B) dye.

[2] = tested on: MIA-PaCa-2-DLK1 over-expressing cell line; assay: In vitro cytotoxicity (cell proliferation inhibition, SRB dye), DLK1 over-expressing cells; type: cell-based, human; conditions: MIA-PaCa2 DLK1 positive
Procedure: as §1

[3] = target: T1, DLK1 over-expressed on MIA-PaCa-2 cells (UniProt P80370 24-383, limits assumed); assay: cell-based or functional assay
T1 sequence (looked up): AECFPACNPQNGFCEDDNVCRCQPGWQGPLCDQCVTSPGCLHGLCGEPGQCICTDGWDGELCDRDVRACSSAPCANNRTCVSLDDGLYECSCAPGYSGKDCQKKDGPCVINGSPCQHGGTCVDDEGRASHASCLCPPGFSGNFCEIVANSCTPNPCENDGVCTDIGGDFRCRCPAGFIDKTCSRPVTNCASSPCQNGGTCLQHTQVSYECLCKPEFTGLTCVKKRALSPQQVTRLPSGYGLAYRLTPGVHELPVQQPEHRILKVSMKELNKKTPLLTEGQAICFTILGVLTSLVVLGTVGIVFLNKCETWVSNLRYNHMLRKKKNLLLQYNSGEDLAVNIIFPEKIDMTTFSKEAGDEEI

[4] = tested on: cells where DLK1 is overexpressed; conditions: confirmed in Korean Patent Application No. 10-2018-0107639; cited from earlier work

For CC[C@H](C)[C@@H]([C@@H](CC(=O)N1CCC[C@H]1[C@H](OC)[C@@H](C)C(=O)N[C@@H](Cc1ccccc1)C(=O)OC)OC)N(C)C(=O)[C@@H](NC(=O)[C@@H](NC)C(C)C)C(C)C [MMAF-OMe] (H-[NMeV]V[Dil][Dolaproine]F-OMe), the IC50 ([1]; 72 hr treatment, read-out: IC50 MIA-PaCa2-DLK1 negative 72 hr) was 0.41 nM, the IC50 ([1]; 96 h treatment, read-out: IC50 MIA-PaCa2-DLK1 negative 96 h) was 0.12 nM and the IC50 ([1]; 168 hr treatment, read-out: IC50 MIA-PaCa2-DLK1 negative 168 hr) was 0.12 nM. For the same molecule, the IC50 ([2]; 72 hr treatment, read-out: IC50 MIA-PaCa2-DLK1 positive 72 hr) was 0.3 nM, the IC50 ([2]; 96 h treatment, read-out: IC50 MIA-PaCa2-DLK1 positive 96 h) was 0.13 nM and the IC50 ([2]; 168 hr treatment, read-out: IC50 MIA-PaCa2-DLK1 positive 168 hr) was 0.06 nM.

B1: ADC6 (18A5 conjugated to Compound 6) (other)
VH: QVQLVQSGGAVVQPGHSLRLSCEASGFKFKDYGMHWVRQAPGKGLEWLAVISHDGRNKNYADSVKGRLTISRDNSKNTLSFQMNSLRAEDTAVYYCVRDWSYAFDIWGQGTLVTVSS
VL: DIQMTQSPSFLSASVGDRVNITCRASQDISRRLAWYQQKPGKAPKLLIYGAASLQSAVASRFSGSGSGTEFTLTISSLQPEDFANYYCQQIYTTPLTFGGGTKVEIK
In the case of B1, the “IC50 (nM), cell proliferation inhibition (SRB), MIA-PaCa2-DLK1 positive, 168 hr” value [3] is reported as 0.21 nM.

B2: 18A5: anti-DLK1 human monoclonal antibody, heavy chain SEQ ID NO. 101, light chain SEQ ID NO. 102 (antibody, V domains shown)
VH: B1 VH
VL: B1 VL
For B2, the “binding to cells where DLK1 is overexpressed” value (from here on “binding”) [4] is listed as “capable of binding to cells where DLK1 is overexpressed”.

B3: 18A5_AM_1A12: 18A5 mutant anti-DLK1 antibody, heavy chain SEQ ID NO. 127, light chain SEQ ID NO. 128 (antibody, V domains shown)
VH: B1 VH with A10G, H16G, E23A
VL: DIQMTQSPSFLSASVGDRVTITCRASHDISSSLAWYQQKSGKAPKLLIYSASNLKSGVPSRFSGSGSGTDFSLTISSLQPEDFATYYCQQSYTTVLTFGGGTKLEIK
In the case of B3, the “binding” value [4] is listed as “capable of binding to cells where DLK1 is overexpressed”.

B4: 18A5_LS_1A10: 18A5 mutant anti-DLK1 antibody, heavy chain SEQ ID NO. 101, light chain SEQ ID NO. 126 (antibody, V domains shown)
VH: B1 VH
VL: DIQMTQSPSSLSASLGDRVTITCRASQGISSALAWYQQKPGKAPKLLIYAASSLQSGVPSRFSGSGSGTDFTLTINSLQPEDFATYYCQQSYTTPLTFGGGTKVEIK
In the case of B4, the “binding” value [4] is given as “capable of binding to cells where DLK1 is overexpressed”.

B5: 27F7: anti-DLK1 human monoclonal antibody, heavy chain SEQ ID NO. 109, light chain SEQ ID NO. 110 (antibody, V domains shown)
VH: QMQLVESGGGLVKPGGSLTLSCDATGFNFGSYYMNWVRQAPGKGLEWLAHISSTGRTIYYADSVKGRFTISRDNAKSSLDLQMNSLRAEDTAVYYCARDQGYPFGMDVWGHGTTVTVSS
VL: QLVLTQPSSVSGAPGQRVTISCTGSSSNIGAGYDVDWYQQLPGTAPKLLIYGNTNRPSGVPDRFSGSKSGTSASLAITGLQAEDDSDYYCQSYDSSLSAWVFGGGTKLTVL
In the case of B5, the “binding” value [4] is given as “capable of binding to cells where DLK1 is overexpressed”.
